Assay results as given in patent US20180333386A1, “AGENTS USEFUL FOR TREATING FRIEDREICH'S ATAXIA AND OTHER NEURODEGENERATIVE DISEASES” (IXCHEL PHARMA LLC, priority 2011, published 2018).
“Also recorded” adds a separate entry of the source. Counter-ions that a name gives are not always drawn.

Assays:
[1] = test system: Nrf2 target antioxidant response element (ARE); assay: Nrf2/ARE luciferase assay in reporter HeLa cell line; format: cell-based, human; conditions: for Nrf2/ARE activity (ARE-luciferase): 24 hours, threshold mean+2× Standard deviation of the vehicle control
Protocol: To evaluate the mechanism of FXN induction of the […] that protected from diamide, the potency of each to activate the Nrf2 target antioxidant response element (ARE) was evaluated. 10 of the 20 frataxin inducers interacted with the Nrf2 pathway in a significant way, either positively or negatively. The dashed line=mean+2×SD. […] Dyclonine's induction of ARE/Nrf2 activity was dose-dependent (FIG. 13B).
The Nrf2 reporter HeLa cell line was generated using the Lenti Antioxidant Response Reporter (Qiagen, Valencia, Calif.) system, which expressed firefly luciferase gene and the ARE transcriptional response element. 15,000 cells/well were plated in 90 ul in phenol-free DMEM media in white wall/bottom 96 well plates. Drugs were added and plates incubated at 37 C for 24 hours. 75 microliters of Bright Glo Luciferase Assay Reagent (Promega, Madison, Wis.) with combined lysis solution was added to all wells and allowed to incubate for 5 minutes at room temperature. Luminescence was then read with a PolarStar Omega plate reader (BMG LabTech, Cary, N.C.).

[2] = test system: frataxin deficient 50B11 dorsal root ganglion cell line; assay: Thiol-antioxidant inhibitors in siRNA-mediated frataxin deficient 50B11 dorsal root ganglion cell line; format: cell-based; conditions: for death of neurons with frataxin deficiency on treatment: siRNA frataxin knockdown vs. control
Protocol: Therefore, 11 inhibitors of these antioxidants were tested in siRNA-mediated frataxin deficient 50B11 dorsal root ganglion cell line. […] The major mitochondrial antioxidant system is thioredoxin reductase. Auranofin is a specific inhibitor of thioredoxin reductase, and diamide is a known oxidizer of thioredoxin. Thus the diamide screen identifies compounds that rescue from thioredoxin reductase deficiency, which include inducers of Nrf2, which are known to induce thioredoxin reductase and other antioxidant functions.

[3] = test system: human FRDA patient fibroblasts; assay: Diamide screening assay: protection of FRDA patient fibroblasts from diamide toxicity (Calcein-AM viability); format: cell-based; conditions: for protection from diamide toxicity: 200 micromolar diamide, result in words; for EC50: Homo sapiens, Fibroblast; for EC50 / maximum effect of protection from diamide toxicity, fold increase from baseline: n=3; for maximum effect of protection from diamide toxicity, fold increase from baseline: dose-response
Text: The cell-based assay was further optimized for high-throughput screening in 96-well plates, with an excellent screening window and low variability, represented by a Z′ value of 0.75 (n=5) and was used to screen a library of 1600 drugs that have been approved for clinical use in the USA. Drugs that rescued at DMSO mean+two standard deviations were repeated an additional two times. Compounds that rescued in >2 screens advanced to secondary screening, which included replication of protective effect in a concentration-dependent manner, 0.01-10 μM. […] Additional mechanisms are listed below.
Diamide Screening Method Format: On the day one of the assay, cell density was determined using the Vi-Cell counter, and a volume corresponding to 5,500 human FRDA patient fibroblasts per well was aliquoted into 96-well black/clear poly-d-lysine coated plates in growth media, and the cells were allowed 3 hours to attach. Drugs (10 mM stock in DMSO) are dispensed into wells after an intermediate dilution in PBS, giving a final DMSO concentration of 0.1% using an electronic multichannel pipette. Test compounds were tested at 10 micromolar. There were 8 negative control (0.1% DMSO only) and 8 positive control (300 micromolar DTT) wells on each plate. Plates were incubated at 37 C and 5% CO2 for twenty-four hours after which 200 micromolar diamide was added to all wells. Plates were incubated for an additional 16 hours as before. Cells were washed with PBS and incubated with Calcein-AM cell viability dye (Invitrogen, Carlsbad, Calif., USA) and fluorescence was read with a PolarStar Omega plate reader (BMG LabTech, Cary, N.C.). Hits were scored as Basal Median+3×MAD.

[4] = test system: frataxin (FXN) protein in HeLa cells; assay: Frataxin protein level in HeLa cells by Western blot; format: cell-based, human
Protocol: (§1) To test if one mechanism of protection from diamide toxicity for dyclonine was an increase in frataxin protein levels, HeLa cells or FRDA patient lymphoblasts were cultured for 48 hr in the presence of 10 micromolar dyclonine in 6 well dishes. Cells were harvested and whole cell lysates were analyzed by Western blot (protocol below). Representative blots are shown for HeLa cells (FIG. 5A) and FRDA and healthy siblings lymphoblasts (FIG. 5B), as well as densitometry normalization to actin. Dyclonine induction of FXN levels was consistent over multiple experiments (FIG. 5C).
(§2) Western Blot Protocol: Forty micrograms of whole-cell lysates were analyzed on […] Bis-Tris gels (Invitrogen, Carsbad, Calif., USA). Electrophoresis was carried out according to the manufacturer's instruction. After electrophoresis, the proteins were transferred to nitrocellulose membranes by iBlot device (Invitrogen). The membranes were blocked with blocking buffer (Odyssey, Lincoln, Nebr., USA) for 1 h and incubated overnight with primary antibodies in blocking buffer: anti-frataxin anti-β-actin, tubulin, (Sigma). Afterwards, the membranes were incubated with a corresponding pair of IRDye 680CW- and IRDye 800CW-coupled (Odyssey) secondary antibodies for 1 h. The membranes were washed four times with 1× Tris-buffered saline with Tween 20 and proteins were visualized with a LI-COR infrared imager (Odyssey). The pictures were processed by Odyssey version 3.0 infrared imaging software.
(§3) An additional hit in the diamide screening assay in FRDA fibroblasts was dimethyl fumarate (protocol above). […] To test if the mechanism of protection from diamide toxicity was an increase in frataxin protein levels, HeLa cells or FRDA patient lymphoblasts were cultured for 48 hr in the presence of 0.03-30 micromolar dimethyl fumarate in 12-well dishes. Cells were harvested and whole cell lysates were analyzed by Western blot (protocol above). Representative blots are shown for HeLa cells (FIG. 9A) and FRDA lymphoblasts (FIG. 9B). FXN was induced 1.37 fold ±0.1 (n=3) in HeLa cells, and 2.4 fold ±0.9 (n=3) in FRDA lymphoblasts.

[5] = test system: frataxin (FXN) protein in FRDA patient lymphoblasts; assay: Frataxin protein level in FRDA patient lymphoblasts by Western blot; format: cell-based, human; conditions: 48 hr
Protocol: as §1, §2, §3
An additional hit in the diamide screening assay (protocol above) in FRDA fibroblasts was the phenathiazine, tolonium cl. […] To test if the mechanism of protection from diamide toxicity was an increase in frataxin protein levels, the phenothiazines tolonium cl and methylene blue were tested. […] Cells were harvested and whole cell lysates were analyzed by Western blot (protocol above). […]
To test if Methylene blue also potentiates DMF-mediated FXN induction, FRDA patient lymphoblasts were cultured for 48 hr in the presence of 3 micromolar dimethyl fumarate and 3 micromolar methylene blue in 6 well dishes. Cells were harvested and whole cell lysates were analyzed by Western blot (protocol above).

[6] = test system: frataxin (FXN) protein in YG8 FRDA transgenic mouse; assay: Frataxin level in YG8 FRDA transgenic mouse model (Western blot of cerebellum and splenocytes); format: in vivo; conditions: for FXN expression in vivo, FXN/actin densitometry: hemizygous YG8 mice; for frataxin in brains and other tissues of the animal model of FRDA: result in words
Protocol: Dyclonine increases frataxin levels in vivo. To determine ability of dyclonine to reverse the in vivo FXN protein defect, the YG8 FRDA transgenic mouse model was chosen. Hemizygous animals with the least frataxin were separated into vehicle and treatment groups. Homozygous mice (two copies of FXN gene) were used as positive control. Animals were dosed daily with 1 mg/kg dyclonine via intraperitoneal injection for 6 days. At the end of the study, the animals were sacrificed, and processed for biochemical analysis, i.e. Western blots of treated and vehicle groups of Cerebellum and splenocyte frataxin level. Western blot of cerebellum and splenocytes is shown (FIG. 6A) and densitometry of FXN/actin normalization (FIG. 6B) showing dyclonine induces FXN expression in vivo by 1.5-2 fold.
Of these 20, 8 were tested in the YG8 transgenic mouse model. […] Animals were dosed daily with 1-10 mg/kg drug via intraperitoneal injection for 6 days. At the end of the study, the animals were sacrificed, and processed for biochemical analysis, i.e. Western blots (protocol above) of treated and vehicle groups of Cerebellum and splenocyte frataxin level. Western blot of cerebellum is shown (FIG. 7B) and densitometry of FXN/actin normalization (FIG. 7A) showing dimethyl fumarate, dyclonine, methylene blue, and nifursol induce FXN expression in vivo by 1.5-2 fold.
To determine ability of dimethyl fumarate to reverse the in vivo FXN protein defect, the YG8 FRDA transgenic mouse model was chosen. Hemizygous animals with largest FXN defect, were separated into vehicle and treatment groups. Homozygous mice were used as positive control. Animals were dosed daily with 5 mg/kg dimethyl fumarate via intraperitoneal injection for 6 days. A non-specific HDAC inhibitor was used as a positive control, dosed at 1 mg/kg. At the end of the study, the animals were sacrificed, and processed for biochemical analysis, i.e. Western Blots of treated and vehicle groups of cerebellum and splenocyte frataxin level.

[7] = test system: frataxin (FXN) protein in FRDA lymphoblasts; assay: In-cell Western of FXN in FRDA lymphoblasts (synergy of FXN-inducing drugs); format: cell-based, human; conditions: 5 micromolar dyclonine with dose-response of dimethyl fumarate, 48 hours
Protocol: To evaluate potential synergy of identified FXN-inducing drugs, a dose-response of dimethyl fumarate in the absence or presence of 5 micromolar dyclonine was determined in FRDA lymphoblasts incubated for 48 hours in 96 well plates. Whole cells were fixed and permeabilized and for analyzed using in-cell Western technique (protocol below).
In-Cell Western Blot Protocol: 50,000 cells/well were plated in black walled clear bottom 96-well poly-d-lysine coated plates. After drug treatment, media was removed by aspiration and cells were fixed by addition of 100 ul/well of 3.7% formaldehyde in PBS. After 30 minutes, fixing solution was removed and 100 ul/well of 0.1% TritonX100 in PBS was added to all wells. After 40 minutes, cells were blocked with 100 ul blocking buffer (Odyssey, Lincoln, Nebr., USA) for 1 h and incubated with primary antibodies in blocking buffer: anti-frataxin (Mitosciences, Eugene, Oreg.) anti-β-actin (Sigma) for one hour. Cells were washed three times with 1× Tris-buffered saline with Tween 20, and then incubated with 100 ul/well of IRDye 680CW- and IRDye 800CW-coupled (Odyssey) secondary antibodies for 1 h. The cells were washed three times with 1× Tris-buffered saline with Tween 20 and signal was visualized with a LI-COR infrared imager (Odyssey). The pictures were processed by Odyssey version 3.0 infrared imaging software.

**Q.** For mepartricin, which “Nrf2/ARE activity (ARE-luciferase)” value [1] is on record?
**A.** induced Nrf2/ARE activity

**Q.** With CC(=O)OC[C@H]1O[C@@H]([S-])[C@H](OC(C)=O)[C@@H](OC(C)=O)[C@@H]1OC(C)=O.CCP(CC)CC.[Au+] [auranofin] as the compound, how does the “death of neurons with frataxin deficiency on treatment” value [2] read?
**A.** died more rapidly

**Q.** With COC(=O)/C=C/C(=O)OC [dimethyl fumarate] as the compound, how does the “protection from diamide toxicity” value [3] read?
**A.** neuroprotective; also recorded: dose-dependent

**Q.** What about the EC50 [3] of the same compound?
**A.** 1300 ± 800 nM

**Q.** What about the “maximum effect of protection from diamide toxicity, fold increase from baseline” value [3] of the same compound?
**A.** 1.9±0.2 fold

**Q.** What about the “FXN induction in HeLa cells” value ([4]; 48 hr, 0.03-30 micromolar dimethyl fumarate, n=3) of the same compound?
**A.** 1.37 fold

**Q.** And the “significance of FXN induction by concentration” value ([4]; at 1, 10 and 30 micromolar dimethyl fumarate, 48 hr (FIG. 9C))?
**A.** Significant FXN induction

**Q.** And the “FXN induction in FRDA lymphoblasts” value ([5]; 0.03-30 micromolar dimethyl fumarate, n=3)?
**A.** 2.4 fold

**Q.** What about the “FXN expression in vivo, FXN/actin densitometry” value ([6]; 5 mg/kg daily intraperitoneal for 6 days, cerebellum, p<0.05) of the same compound?
**A.** 1.5-2 fold

**Q.** What about the “frataxin in brains and other tissues of the animal model of FRDA” value [6] of the same compound?
**A.** increased frataxin

**Q.** What about the “Nrf2/ARE activity (ARE-luciferase)” value [1] of the same compound?
**A.** induced Nrf2/ARE activity

**Q.** How did the “death of neurons with frataxin deficiency on treatment” value [2] turn out when CN(C)C(=O)/N=N/C(=O)N(C)C [diamide] was run?
**A.** died more rapidly

**Q.** Which “reversal of sensitivity to diamide” value ([2]; frataxin deficient DRG cell line / Friedreich's patient fibroblasts) does the source give for O[C@@H](CS)[C@@H](O)CS [DTT] here?
**A.** could be reversed

**Q.** What does the source list for O=C(N/N=C/c1ccc([N+](=O)[O-])o1)c1cc([N+](=O)[O-])cc([N+](=O)[O-])c1O [nifursol]?
**A.** protection from diamide toxicity [3]: neuroprotective; frataxin in brains and other tissues of the animal model of FRDA [6]: increased frataxin

**Q.** For Cc1cc2nc3ccc(N(C)C)cc3[s+]c2cc1N [tolonium cl], which EC50 [3] is on record?
**A.** 100 ± 10 nM

**Q.** And the “maximum effect of protection from diamide toxicity, fold increase from baseline” value [3]?
**A.** 1.9±0.1 fold

**Q.** Which results are given for CN(C)c1ccc2nc3ccc(=[N+](C)C)cc-3sc2c1 [methylene blue]?
**A.** protection from diamide toxicity [3]: neuroprotective; potentiation of DMF-mediated FXN induction ([5]; 3 micromolar methylene blue with 3 micromolar dimethyl fumarate, Western blot): potentiates DMF FXN induction; Fold FXN induction in FRDA lymphoblasts ([5]; 10 nanomolar methylene blue, n=2): 1.7 fold; frataxin in brains and other tissues of the animal model of FRDA [6]: increased frataxin

**Q.** CCCCOc1ccc(C(=O)CCN2CCCCC2)cc1 [dyclonine] was tested. Which “protection from diamide toxicity” value [3] did it give?
**A.** protected FRDA cells from diamide induced oxidative stress; also recorded: dose dependent protection

**Q.** And the “frataxin expression in HeLa cells” value ([4]; 48 hr, 10 micromolar dyclonine, result in words)?
**A.** Induces Frataxin Expression

**Q.** And the “frataxin expression in FRDA lymphoblasts” value ([5]; 10 micromolar dyclonine, result in words)?
**A.** Induces Frataxin Expression

**Q.** And the “FXN expression in vivo, FXN/actin densitometry” value ([6]; 1 mg/kg daily intraperitoneal for 6 days, cerebellum and splenocytes)?
**A.** 1.5-2 fold

**Q.** What about the “frataxin in brains and other tissues of the animal model of FRDA” value [6] of the same compound?
**A.** increased frataxin

**Q.** And the “potentiation of DMF FXN induction” value [7]?
**A.** potentiated DMF FXN induction

**Q.** What about the “Nrf2/ARE activity (ARE-luciferase)” value [1] of the same compound?
**A.** induced Nrf2/ARE activity

**Q.** And the “dose dependence of induction of ARE/Nrf2 activity” value ([1]; FIG. 13B)?
**A.** dose-dependent
